# Results from patent US12186400B2, “Micromolecular compound specifically degrading tau protein, and application thereof” (Shanghai Qiangrui Biotech Co., Ltd., priority 2018, dated 2025).
# How the values were obtained:
# tau protein [1] = molecular target: T1, tau protein (Homo sapiens, UniProt P10636); assay: Immunoblot of total tau protein (tau5 antibody) in HEK293 tau cells after 24 h treatment; format: cell-based; details: HEK293 tau cells stably expressing wild type full length tau, effect at 1 μM, 10 μM and 20 μM (tested 0, 0.01, 0.1, 1, 10, 20 μM)
# T1 construct: HEK293 tau cells (stably expressing wild type full length tau protein); expressed in transfected cells
# Procedure: HEK293 tau cells (stably expressing wild type full length tau protein) is subjected to cell culture and pharmaceutical treatment, and after the HEK293 tau cells were cultured in DMEM medium for 24 hours, the micromolecular compounds prepared in the above example with various concentrations (0 μM, 0.01 μM, 0.1 μM, 1 μM, 10 μM, 20 μM) were added, the cells were further cultured for 24 hours. The cells were lysed with RIPA liquid and the cell extraction solution was collected, the proteins in the cell extraction solution were separated with 10% polyacrylamide gel electrophoresis (PAGE), and subsequently immunoblotted with anti-total tau protein antibody (tau5), and the tau protein content was quantitatively analyzed. The detailed operation procedures for preparation of samples, measurement of protein content in the samples, and the immunoblotting process were performed with reference to the following content.
# (1) The growth condition and density of cells in the cell culture plates were observed under a microscope;
# (2) PBS and cell culture plate were precooled on ice, a mixed liquor consisting of 1× buffer solution+PMSF (1:100)+protease inhibitor cocktail (1:1000) was prepared; 80 μl of the mixed liquor was added into each pore of the 6-well plate, and 150 μl of the mixed liquor was added into a culture dish with a diameter of 6 cm; […]
# tau protein [2] = molecular target: T1, tau protein; assay: Fluorescence photograph of total tau protein content in HEK293 tau cells; format: cell-based; details: different concentrations
# T1 sequence (P10636 1-441 isoform P10636-8): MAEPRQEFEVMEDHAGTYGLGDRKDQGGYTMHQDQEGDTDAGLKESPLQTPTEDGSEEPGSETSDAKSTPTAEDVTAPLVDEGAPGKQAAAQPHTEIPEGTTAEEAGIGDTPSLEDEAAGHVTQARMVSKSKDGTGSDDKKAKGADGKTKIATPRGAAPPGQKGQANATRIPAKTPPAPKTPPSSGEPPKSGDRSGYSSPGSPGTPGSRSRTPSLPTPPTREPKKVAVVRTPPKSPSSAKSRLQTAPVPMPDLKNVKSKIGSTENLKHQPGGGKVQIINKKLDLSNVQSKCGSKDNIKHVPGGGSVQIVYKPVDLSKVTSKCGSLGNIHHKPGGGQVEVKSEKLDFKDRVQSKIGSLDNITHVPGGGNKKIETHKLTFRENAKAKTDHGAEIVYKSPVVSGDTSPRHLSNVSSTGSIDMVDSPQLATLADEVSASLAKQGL
smiles,measurement,setting,value
CC(=O)N1CCCN(c2nc(NCCc3cccs3)nc(N(C)CC(=O)NCCOCCOCCOCC(=O)N[C@H](C(=O)N3C[C@H](O)C[C@H]3C(=O)NCc3ccc(-c4scnc4C)cc3)C(C)(C)C)n2)CC1 [Compound 4],"content of tau protein in cells (immunoblot, quantitative analysis, FIG. 2 and FIG. 3)",tau protein [1],dose-dependently reduce the content of tau protein in cells
same,"total tau protein content in the HEK293 tau cells (fluorescence photograph, FIG. 4)",tau protein [2],reducing total tau protein content in the HEK293 tau cells
